Patent US7741326B2, “Indole and benzofuran 2-carboxamide derivatives and uses thereof” (Roche Palo Alto LLC, priority 2006, dated 2010)

Assays:
[1] = target: T1, recombinant human 5-HT2A receptor (Homo sapiens, UniProt P28223); experiment: Radioligand binding, [3H]Ketanserin competition in CHO-K1 cell membranes; details: [3H]Ketanserin displacement, pH 7.4 at 32° C., read-out: pKi for the 5-HT2A receptor (converted)
T1 construct: expressed in transfected cells
Procedure: (§1) The binding activity of compounds of this invention in vitro was determined as follows. Duplicate determinations of 5-HT6 ligand affinity were made by competing for binding of [^3H]LSD in cell membranes derived from HEK293 cells stably expressing recombinant human 5-HT6 receptor. Duplicate determinations of 5-HT2A ligand affinity were made by competing for binding of [^3H]Ketanserin (3-(2-(4-(4-fluorobenzoyl)piperidinol)ethyl)-2,4(1H,3H)-quinazolinedione) in cell membranes derived from CHO-Ki cells stably expressing recombinant human 5-HT2A receptor. Membranes were prepared from HEK 293 cell lines by the method described by Monsma et al., Molecular Pharmacology, Vol. 43 pp. 320-327 (1993), and from CHO-K1 cell lines as described by Bonhaus et al., Br J Pharmacol. June; 115(4):622-8 (1995).
(§2) For estimation of affinity at the 5-HT6 receptor, all determinations were made in assay buffer containing 50 mM Tris-HCl, 10 mM MgSO4, 0.5 mM EDTA, 1 mM ascorbic acid, pH 7.4 at 37° C., in a 250 microliter reaction volume. […]
(§3) Assay tubes containing [^3H] […] LSD or [^3H]Ketanserin were determined as radioactive counts per minute using Packard TopCount.
(§4) Displacement of [^3H]LSD or [^3H]Ketanserin from the binding sites was quantified by fitting concentration-binding data to a 4-parameter logistic equation: […]

[2] = target: T2, recombinant human 5-HT6 receptor (Homo sapiens, UniProt P50406); experiment: Radioligand binding, [3H]LSD competition in HEK293 cell membranes; details: [3H]LSD displacement, pH 7.4 at 37° C., read-out: pKi for the 5-HT6 receptor (converted)
T2 construct: expressed in transfected cells
T2 sequence (P50406 whole entry): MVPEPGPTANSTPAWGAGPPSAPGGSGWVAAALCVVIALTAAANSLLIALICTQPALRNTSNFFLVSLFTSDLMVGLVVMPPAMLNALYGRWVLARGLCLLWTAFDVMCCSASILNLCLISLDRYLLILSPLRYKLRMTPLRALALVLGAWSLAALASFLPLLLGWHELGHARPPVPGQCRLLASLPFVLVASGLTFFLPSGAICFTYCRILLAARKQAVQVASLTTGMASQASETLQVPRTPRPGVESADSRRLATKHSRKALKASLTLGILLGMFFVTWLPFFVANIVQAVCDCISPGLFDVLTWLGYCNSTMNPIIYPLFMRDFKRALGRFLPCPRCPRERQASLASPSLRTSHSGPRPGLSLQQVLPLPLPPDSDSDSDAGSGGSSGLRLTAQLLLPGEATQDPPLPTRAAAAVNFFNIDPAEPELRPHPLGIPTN
Procedure: as §1, §2, §3, §4

T1 sequence (P28223 whole entry): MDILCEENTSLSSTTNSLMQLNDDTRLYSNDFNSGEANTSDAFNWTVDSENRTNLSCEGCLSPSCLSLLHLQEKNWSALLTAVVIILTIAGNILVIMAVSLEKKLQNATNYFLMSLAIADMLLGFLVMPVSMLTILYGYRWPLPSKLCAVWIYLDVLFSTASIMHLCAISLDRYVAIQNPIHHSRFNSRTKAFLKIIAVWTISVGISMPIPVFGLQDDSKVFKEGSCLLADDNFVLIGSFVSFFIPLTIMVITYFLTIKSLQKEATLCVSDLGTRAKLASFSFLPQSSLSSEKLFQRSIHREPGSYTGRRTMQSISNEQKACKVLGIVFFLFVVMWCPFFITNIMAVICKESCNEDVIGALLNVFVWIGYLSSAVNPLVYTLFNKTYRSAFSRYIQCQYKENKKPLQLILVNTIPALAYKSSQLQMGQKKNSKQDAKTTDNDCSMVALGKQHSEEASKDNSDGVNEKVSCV

Ki [1] | SMILES | Ki [2]
~1.23 nM | Cc1cc(N2CCNCC2)c2oc(C(N)=O)c(Cc3cccc(F)c3)c2c1 [Compound 31, 3-(3-Fluoro-benzyl)-5-methyl-7-piperazin-1-yl-benzofuran-2-carboxylic acid amide] | –
– | CNC(=O)c1cc2c(N3CCNCC3)cccc2n1Cc1cccc(F)c1 [Compound 26, 1-(3-Fluoro-benzyl)-4-piperazin-1-yl-1H-indole-2-carboxylic acid methylamide] | ~0.126 nM
